From patent EP0491793B1, “2'-DEOXY-4'-THIORIBONUCLEOSIDES AS ANTIVIRAL AND ANTICANCER AGENTS” (Southern Research Institute, priority 1989, dated 1991)
In brackets after ≈: the same amount, converted by molar mass. Like-named read-outs stand apart in the source and are kept apart here.

Experiments:
HSV-1 (E377) = assay: CPE-inhibition assay against HSV-1 in Vero cell monolayers; format: cell-based, herpes simplex virus, Type 1; settings: for EC50: read-out: MIC50; for VR: Virus Rating, VR 1.0 or greater significant, 0.5-0.9 marginal, less than 0.5 inactive; for TI: therapeutic index, MTC divided by MIC50, HSV-1 (E377)
Procedure: (§1) 2'-Deoxy-4'-thioribonucleosides were tested for antiviral activity against viruses that replicate in mammalian cells growing in cell culture. The Virus Rating (VR) is a standard weighted measurement of antiviral activity which takes into account the degree of inhibition of virus-induced cytopathogenic effects (CPE) and the degree of cytotoxicity produced by the test compound, determined by a modification of the method of Ehrlich et al, Ann. N.Y. Acad. Sci. 130, 5-16 (1965) .
(§2) The CPE-inhibition assays were designed to test seven 0.5 log10 concentrations of each compound, beginning with 320 µg/mL, against HSV in triplicate 24-hour Vero cell monolayers in 96-well tissue culture plates. To each of the replicate cell cultures were dispensed 0.1 mL of the test compound solution (or suspension) and 0.1 mL of HSV suspension (diluted in medium to yield 32 CCID50 units per 0.1 mL). Cell controls, untreated virus-infected controls and drug cytotoxicity controls were included in each assay. […] The cell monolayers were examined microscopically for drug cytotoxicity and for CPE. which was graded on a scale of 0-4 (0-100% CPE).
(§3) The VR was calculated as 0.1 of the sum of the numerical differences between the recorded CPE grade of each test well and that of the corresponding virus control in the culture plate. Numerical differences between the scores of test wells containing a drug concentration which is partially cytotoxic and their corresponding virus controls were halved.
(§4) In tests carried out by this method, a greater value of VR indicates greater antiviral activity.
(§5) The MIC50 (minimum inhibitory concentration, 50%) is the concentration of a test compound required for 50% inhibition of virus-induced cytopathogenic effect calculated by using a regression analysis program for semilog curve fitting. MTC (minimum toxic concentration) is the minimum drug concentration (µg/ml) causing any cytotoxicity. TI is the therapeutic index, calculated by dividing the minimum cytotoxic drug concentration (MTC) by the minimum inhibitory concentration, 50% (MIC50). […]

HSV-2 (MS) = assay: CPE-inhibition assay against HSV-2 in Vero cell monolayers; format: cell-based, herpes simplex virus, Type 2; settings: for EC50: read-out: MIC50; for VR: Virus Rating, VR 1.0 or greater significant, 0.5-0.9 marginal, less than 0.5 inactive
Procedure: as §1, §2, §3, §4, §5

in vitro = format: cell-based; settings: monkey, vero cells
Procedure: (§6) The CPE-inhibition assays were designed to test seven 0.5 log10 concentrations of each compound, beginning with 320 µg/mL, against HSV in triplicate 24-hour Vero cell monolayers in 96-well tissue culture plates. […] Cell controls, untreated virus-infected controls and drug cytotoxicity controls were included in each assay. […] The cell monolayers were examined microscopically for drug cytotoxicity and for CPE. which was graded on a scale of 0-4 (0-100% CPE). The MIC50 (minimum inhibitory concentration, 50%) is the concentration of a test compound required for 50% inhibition of virus-induced cytopathogenic effect calculated by using a regression analysis program for semilog curve fitting. MTC (minimum toxic concentration) is the minimum drug concentration (µg/ml) causing any cytotoxicity. TI is the therapeutic index, calculated by dividing the minimum cytotoxic drug concentration (MTC) by the minimum inhibitory concentration, 50% (MIC50). […]

Vero cell monolayers = assay: in vitro; format: cell-based; settings: monkey, vero cells
Procedure: as §6

[1] = test system: human epidermoid carcinoma No. 2 ("H.Ep.-2") cells; assay: Cytotoxicity test, colony formation of H.Ep.-2 cells; format: cell-based; settings: HEp-2, 240 h, concentration reducing colony formation by 50%, 10 days incubation
Procedure: (§7) 2'-Deoxy-4'-thioribonucleosides were tested for antitumor activity against leukemia L1210 ("L1210") cells and human epidermoid carcinoma No. 2 ("H.Ep.-2") cells.
(§8) For H.Ep.-2 cells, the IC50 is the concentration required to reduce colony formation by 50% as compared to controls. One hundred cells in 10 mL of medium were placed in prescription bottles, and after 10 days incubation, the medium was decanted and the colonies were stained and counted.
(§9) In the cytotoxicity tests, the lower the IC50 value, the greater the antitumor activity. […]

[2] = test system: leukemia L1210 ("L1210") cells; assay: Cytotoxicity test, cellular proliferation of L1210 cells in suspension culture; format: cell-based; settings: Mus musculus, concentration decreasing cellular proliferation by 50%, 48 hour values
Procedure: as §7
(§10) For L1210 cells the IC50 is the concentration required to decrease cellular proliferation by 50% as compared to untreated controls. The cells were grown in suspension cultures and the number of cells present was determined at 24 and 48 hours.
as §9

[3] = test system: either H.Ep.-2 or L1210 cells, or both; assay: Cytotoxicity tests, summary statements that do not fix the cell line; format: cell-based; settings: text statement on Table 2, cell line not fixed
Procedure: as §7, §10, §8, §9

[4] = Human alphaherpesvirus 1, 50% inhibition of virus-induced cytopathogenic effect, HSV-1 (E377), Vero cells, unit not given for MIC50 (MTC in µg/ml, TI = MTC/MIC50)

SMILES	EC50 (HSV-1 (E377); [4])	VR (HSV-1 (E377); HSV-1 (E377), Vero cells)	TI (HSV-1 (E377))	EC50 (HSV-2 (MS); Human alphaherpesvirus 2, 50% inhibition of virus-induced cytopathogenic effect, HSV-2 (MS), Vero cells, unit not given for MIC50 (MTC in µg/ml, TI = MTC/MIC50))	VR (HSV-2 (MS); HSV-2 (MS), Vero cells)	MCC (in vitro)	MIC (Vero cell monolayers)	EC50 (HSV-1 (E377); Human alphaherpesvirus 1, Vero)	EC50 (HSV-2 (MS); Human alphaherpesvirus 2, Vero)	TI (HSV-2 (MS); therapeutic index, MTC divided by MIC50, HSV-2 (MS))	antiviral activity against herpes simplex Type 1 (HSV-1 (E377); statement in words on the tests of Table 1)	IC50 [1]	IC50 [2]	IC50 [3]
Nc1nc2c(ncn2COCCO)c(=O)[nH]1 [Acyclovir, reference compound]	0.5 µg/mL (≈ 2.22 µM)	6.7	> 441	3.6 µg/mL (≈ 16 µM)	4.8	> 225 µg/mL	>225.2 >225.2 µg/ml	–	–	–	–	–	–	–
Nc1ncnc2c1ncn2[C@@H]1O[C@H](CO)[C@@H](O)[C@@H]1O [Ara-A, 9-β-D-arabinofuranosyladenine, reference compound]	–	1.8	5.6	–	1.1	84.8 µg/mL	–	15.2 µg/mL (≈ 56.9 µM)	39.3 µg/mL (≈ 147 µM)	2.2	–	–	–	–
Cc1cn([C@@H]2C[C@H](O)[C@@H](CO)S2)c(=O)[nH]c1=O [1-(2-Deoxy-4-thio-α-D-ribofuranosyl)-thymine]	100 µg/mL (≈ 388 µM)	1.4	2.3 -	–	0.3	> 257 µg/mL	>257.2 >257.2 µg/ml	–	–	–	definite antiviral activity	2.7 µg/mL (≈ 10.5 µM)	20 µg/mL (≈ 77.4 µM)	–
Cc1cn([C@H]2C[C@H](O)[C@@H](CO)S2)c(=O)[nH]c1=O [1-(2'-Deoxy-4'-thio-β-D-ribofuranosyl)thymine]	0.8 µg/mL (≈ 3.1 µM)	1.3	3.2 -	–	0.1	2.6 µg/mL	–	–	–	–	–	0.075 µg/mL (≈ 0.29 µM)	0.025 µg/mL (≈ 0.0968 µM)	< 1 µg/mL
